Test results: patent publication US20180118708A1, “CYCLIC COMPOUND” (Takeda Pharmaceutical Company Limited, priority 2015, published 2018)

Experiments:
TNFα = assay: Effect with respect to blood TNF-α concentration elevation by LPS stimulation; format: in vivo; settings: oral, female BALB/c mice, LPS 5 mg/kg i.p. one hour after compound, serum sampled one hour later, vs control group
Source text: Effect With Respect to Blood TNF-α Concentration Elevation by LPS Stimulation
Various kinds of cytokines are produced in vivo accompanying inflammatory response and abnormal immunity or the like. Therefore, the action of test compound with respect to blood TNFa concentration rise was investigated using laboratory animals.
Female BALB/c mice (6 weeks old) were purchased, and, after preliminary rearing for about 1 week, the mice were divided into groups of four animals. […] Solvent was administered to control group in the same way. LPS (5 mg/kg) was administered intraperitoneally to the test group and the control group one hour after the administration of the test compound or solvent, and blood was sampled one hour later. The serum was separated from the obtained blood, and the TNFα concentration in the serum was measured using an assay kit made by R&D Systems Inc. The inhibition rates of the test group with respect to the control group are shown in Table 3.

TLR4 = target: T1, TLR4 (Mus musculus, UniProt Q9QUK6); assay: Inhibitory effect with respect to NO production (LPS/interferon γ stimulated RAW264.7 cells); format: cell-based, murine; settings: test compound 100 nM, LPS 1.25 ng/mL + mouse interferon γ 0.2 ng/mL, nitrite ion in culture supernatant
T1 construct: endogenous in cells; host or cells: RAW264.7 (murine macrophage cell line)
T1 sequence (Q9QUK6 26-835): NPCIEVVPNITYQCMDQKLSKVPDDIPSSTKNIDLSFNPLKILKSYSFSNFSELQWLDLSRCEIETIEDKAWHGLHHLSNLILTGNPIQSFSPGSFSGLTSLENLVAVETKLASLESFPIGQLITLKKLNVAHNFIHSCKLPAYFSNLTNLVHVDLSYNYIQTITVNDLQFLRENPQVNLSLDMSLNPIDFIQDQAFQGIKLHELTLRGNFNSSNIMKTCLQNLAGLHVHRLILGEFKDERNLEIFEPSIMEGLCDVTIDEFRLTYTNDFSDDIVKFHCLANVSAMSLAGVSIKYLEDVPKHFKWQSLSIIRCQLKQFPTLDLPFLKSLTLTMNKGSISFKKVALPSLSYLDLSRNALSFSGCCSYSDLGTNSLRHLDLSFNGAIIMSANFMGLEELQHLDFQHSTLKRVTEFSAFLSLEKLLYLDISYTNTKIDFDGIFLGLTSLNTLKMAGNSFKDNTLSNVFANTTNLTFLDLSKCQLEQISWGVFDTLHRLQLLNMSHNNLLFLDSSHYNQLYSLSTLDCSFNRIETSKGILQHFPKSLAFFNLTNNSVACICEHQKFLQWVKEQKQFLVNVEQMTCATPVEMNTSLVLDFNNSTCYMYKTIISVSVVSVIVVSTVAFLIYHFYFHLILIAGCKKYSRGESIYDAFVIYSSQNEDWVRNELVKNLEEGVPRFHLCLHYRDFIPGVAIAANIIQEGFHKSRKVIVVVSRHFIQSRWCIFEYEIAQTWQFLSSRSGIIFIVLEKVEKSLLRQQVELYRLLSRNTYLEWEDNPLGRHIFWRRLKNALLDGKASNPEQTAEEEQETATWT
T1 sequence (Q9JHF9 19-160 partner): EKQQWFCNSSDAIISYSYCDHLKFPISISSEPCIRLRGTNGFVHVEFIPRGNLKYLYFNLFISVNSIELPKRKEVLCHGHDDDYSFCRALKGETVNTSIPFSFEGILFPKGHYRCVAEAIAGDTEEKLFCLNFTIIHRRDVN
Experimental: Inhibitory Effect With Respect to NO Production
The inhibitory effect on TLR4 was determined using the inhibition rate due to the test compound with respect to NO production as a result of addition of lipopolysaccharide (LPS) using murine macrophage cell line RAW264.7. The cells were adjusted to 2×10^6 cells/mL using RPM1-1640 culture medium (phenol red free) supplemented with 10% inactivated bovine fetal serum, and were plated on 384 well plate so as to contain 6×10^4 cells/30 μL per well. Thereafter the cells were cultured at 37° C. overnight under 5% CO2/95% air. The test compound dissolved in DMSO was diluted 200 times using RPM1-1640 culture medium and adjusted so as to form a compound concentration of 500 nM. The prepared test compound 10 μL (final concentration 100 nM) was added to the cells, and LPS (Sigma) and mouse interferon γ (Wako Pure Chemicals) were added in amounts of 10 μL so as to form final concentrations of 1.25 ng/mL and 0.2 ng/mL respectively. The cells were further cultured overnight, and then the nitrite ion (stable NO metabolite) concentration in the culture supernatant was measured as an index of NO production. The nitrite ion concentration was assayed by adding 10 μL of 20 μg/mL 2,3-diamino naphthalene (DAN) dissolved in 0.2N HCl to 20 μL culture supernatant, incubating at room temperature for ten minutes, and then adding 10 μL of 0.5N NaOH, and measuring the fluorescent value at 460 nm (excitation wavelength 355 nm) using an EnVision plate reader (Perkin Elmer). The NO production inhibition rate (%) was calculated using the value without the addition of stimulating agent as control of 100% inhibition, and the value without the addition of the compound as control of 0% inhibition.

Row | SMILES | NO production inhibitory effect at 100 nM (% inhibition) (TLR4; 0.1 µM) | NO production inhibitory effect at 100 nM (% inhibition) (TLR4) | Blood TNFα inhibition rate (% inhibition) (TNFα; Dose 10 mg/kg) | Blood TNFα inhibition rate (% inhibition) (TNFα; Dose 20 mg/kg)
1 | CCOC(=O)C1=CC2(CCC1S(=O)(=O)Cc1ccc(F)cc1Cl)O[C@@H](CO)[C@H](CO)O2 (single isomer, unassigned) [Compound 7] | 100 |  | 92.4 | 
2 | CCOC(=O)C1=CC2(CCC1S(=O)(=O)Cc1ccc(F)cc1Cl)O[C@H](CO)[C@@H](CO)O2 (single isomer, unassigned) [Compound 14] | 100 |  | 82.8 | 
3 | CCOC(=O)C1=CC2(CCC1S(=O)(=O)Cc1cccc(Cl)c1)O[C@H](CO)[C@@H](CO)O2 (stereo partly drawn) [Compound 3, ethyl (2R,3R)-8-((3-chlorobenzyl)sulfonyl)-2,3-bis(hydroxymethyl)-1,4-dioxaspiro[4.5]dec-6-ene-7-carboxylate] |  | 100 |  | 84.9
4 | CCOC(=O)C1=CC2(CCC1S(=O)(=O)Cc1cccc(Cl)c1)O[C@@H](CO)[C@H](CO)O2 (stereo partly drawn) [Compound 24, ethyl (2S,3S)-8-((3-chlorobenzyl)sulfonyl)-2,3-bis(hydroxymethyl)-1,4-dioxaspiro[4.5]dec-6-ene-7-carboxylate] |  | 100 |  | 91.5
5 | CCOC(=O)C1=CC2(CCC1S(=O)(=O)Cc1cccc(C)c1)O[C@@H](CO)[C@H](CO)O2 (stereo partly drawn) [Compound 25, ethyl (2S,3S)-2,3-bis(hydroxymethyl)-8-((3-methylbenzyl)sulfonyl)-1,4-dioxaspiro[4.5]dec-6-ene-7-carboxylate] |  | 98 |  | 93.8
6 | CCOC(=O)C1=CC2(CC[C@H]1S(=O)(=O)Cc1cccc(Cl)c1)O[C@H](CO)[C@@H](CO)O2 [Compound 30, ethyl (2R,3R,8R)-8-((3-chlorobenzyl)sulfonyl)-2,3-bis(hydroxymethyl)-1,4-dioxaspiro[4.5]dec-6-ene-7-carboxylate] |  | 106 |  | 

Further lines, with some results ahead:

Row | NO production inhibitory effect at 100 nM (% inhibition) (TLR4; 0.1 µM) | NO production inhibitory effect at 100 nM (% inhibition) (TLR4) | SMILES | Blood TNFα inhibition rate (% inhibition) (TNFα; Dose 10 mg/kg) | Blood TNFα inhibition rate (% inhibition) (TNFα; Dose 20 mg/kg)
7 |  | 107 | CCOC(=O)C1=CC2(CCC1S(=O)(=O)Cc1ccc(F)cc1Cl)O[C@@H](CO)[C@H](CO)O2 (stereo partly drawn) [Compound 1, ethyl (2S,3S)-8-((2-chloro-4-fluorobenzyl)sulfonyl)-2,3-bis(hydroxymethyl)-1,4-dioxaspiro[4.5]dec-6-ene-7-carboxylate] |  | 83.3
8 |  | 106 | CCOC(=O)C1=CC2(CCC1S(=O)(=O)Cc1ccc(F)cc1Cl)O[C@H](CO)[C@@H](CO)O2 (stereo partly drawn) [Compound 2, ethyl (2R,3R)-8-((2-chloro-4-fluorobenzyl)sulfonyl)-2,3-bis(hydroxymethyl)-1,4-dioxaspiro[4.5]dec-6-ene-7-carboxylate] |  | 84.5
9 |  | 103 | CCOC(=O)C1=CC2(CC[C@H]1S(=O)(=O)Cc1ccccc1Cl)O[C@H](CO)[C@@H](CO)O2 [Compound 31, ethyl (2R,3R,8R)-8-((2-chlorobenzyl)sulfonyl)-2,3-bis(hydroxymethyl)-1,4-dioxaspiro[4.5]dec-6-ene-7-carboxylate] |  | 
10 |  | 114 | CCOC(=O)C1=CC2(CC[C@H]1S(=O)(=O)Cc1ccccc1Cl)O[C@@H](CO)[C@H](CO)O2 [Compound 32, ethyl (2S,3S,8R)-8-((2-chlorobenzyl)sulfonyl)-2,3-bis(hydroxymethyl)-1,4-dioxaspiro[4.5]dec-6-ene-7-carboxylate] |  | 
